In test [1] the target is T1, SARS-CoV-2 PLpro (nsp3 1564–1878) (Severe acute respiratory syndrome coronavirus 2, UniProt P0DTD1). The test is described as follows: biochemical. More on the design: FRET-quenched peptide (Pro3) cleavage by PLpro, 10 min pre-incubation, slope over 20 min, normalised to no-compound control. Conditions: high concentration screen, read-out: % of control remaining.
Test [2] deals with T1, SARS-CoV-2 PLpro (nsp3 1564–1878). Briefly: biochemical. Conditions: low concentration screen, read-out: % of control remaining. More on the design: FRET-quenched peptide (Pro3) cleavage by PLpro, 10 min pre-incubation, slope over 20 min, normalised to no-compound control.

Where a name gives a salt, the structure may show the parent alone. Read-outs that look alike come from different tables or passages of the source.

Turning to `COc1cc2oc(-c3ccc(O)c(O)c3)cc(=O)c2c(O)c1OC` [2-(3,4-dihydroxyphenyl)-5-hydroxy-6,7-dimethoxy-4H-chromen-4-one], the remaining activity at 3.75 µM in test [1] (Well no.=5979) stood at 93.4%. Also, in test [2] (Well no.=5979), the remaining activity at 1.25 µM is 97%.

`COc1ccc(N2C(=O)CSC2c2cccc(Br)c2)c(OC)c1` (centres unmarked) [2-(3-bromophenyl)-3-(2,4-dimethoxyphenyl)-1,3-thiazolidin-4-one]: the remaining activity at 3.75 µM in test [1] (Well no.=6016) came to 98.8%. Further, in test [2] (Well no.=6016), the remaining activity at 1.25 µM was determined as 101%.

Regarding `COc1ccc(CC(=O)O)cc1` [2-(4-Methoxyphenyl)acetic acid], in test [1] (Well no.=6451), the remaining activity at 3.75 µM stood at 104%. For the same compound, the remaining activity at 1.25 µM in test [2] (Well no.=6451) came to 100%.

For `O=C(COc1ccc(C(=O)c2ccccc2)cc1)NC1CCN(Cc2ccccc2)CC1` [2-(4-benzoylphenoxy)-N-(1-benzyl-4-piperidinyl)acetamide], in test [1] (Well no.=5650), the remaining activity at 3.75 µM worked out at 98.9%. Moreover, the remaining activity at 1.25 µM in test [2] (Well no.=5650) is 101%.

With `CC(=O)NCCOC(=O)[C@H](Oc1cccc(C(F)(F)F)c1)c1ccc(Cl)cc1` [2-(acetylamino)ethyl (2R)-(4-chlorophenyl)[3-(trifluoromethyl)phenoxy]ethanoate], the remaining activity at 3.75 µM in test [1] (Well no.=6055) is 97.1%. Also, the remaining activity at 1.25 µM in test [2] (Well no.=6055) turned out to be 100%.

Take `C[N+](C)(C)CCC(=O)c1cccc2ccccc12` [2-(alpha-Naphthoyl)ethyltrimethylammonium iodide]: in test [1] (Well no.=1051), the remaining activity at 3.75 µM turned out to be 103%. Further, the remaining activity at 1.25 µM in test [2] (Well no.=1051) was 96.5%.

On to `NCC(O)c1ccccc1` (centres unmarked) [2-Amino-1-phenylethanol], for which the remaining activity at 3.75 µM in test [1] (Well no.=7217) came out at 96.7%. The remaining activity at 1.25 µM in test [2] (Well no.=7217) was 95.5%.

Turning to `CCCCC/C=C\C/C=C\C/C=C\C/C=C\CCCC(=O)OC(CO)CO` [2-Arachidonoylglycerol], the remaining activity at 3.75 µM in test [1] (Well no.=4505) is 88.7%. For the same compound, the remaining activity at 1.25 µM in test [2] (Well no.=4505) amounted to 94.8%.

With `O=C[C@H](Cl)[C@@H](O)[C@H](O)[C@H](O)CO` [2-Chloro-2-deoxy-D-glucose], the remaining activity at 3.75 µM in test [1] (Well no.=441) turned out to be 104%. Moreover, the remaining activity at 1.25 µM in test [2] (Well no.=441) is 103%.

As to `OC[C@H]1O[C@@H](n2cnc3c(NC4CCCC4)nc(Cl)nc32)[C@H](O)[C@@H]1O` [2-Chloro-N6-cyclopentyladenosine], the remaining activity at 3.75 µM in test [1] (Well no.=439) was 102%. Further, the remaining activity at 1.25 µM in test [2] (Well no.=439) is 98.2%.

For `Nc1nc(Cl)nc2c1ncn2[C@@H]1O[C@H](COP(=O)(O)OP(=O)(O)OP(=O)(O)O)[C@H](O)C1O` (some centres unmarked) [2-Chloroadenosine triphosphate tetrasodium], the remaining activity at 3.75 µM in test [1] (Well no.=535) was found to be 102%. Moreover, the remaining activity at 1.25 µM in test [2] (Well no.=535) worked out at 100%.

`Nc1nc(Cl)nc2c1ncn2[C@@H]1O[C@H](CO)[C@@H](O)[C@H]1O` [2-Chloroadenosine]: in test [1] (Well no.=274), the remaining activity at 3.75 µM is 101%. For the same compound, the remaining activity at 1.25 µM in test [2] (Well no.=274) amounted to 99.4%.

On to `CNC(=O)[C@H]1O[C@@H](n2cnc3c(NCc4cccc(I)c4)nc(Cl)nc32)[C@H](O)[C@@H]1O` [2-Cl-IB-MECA], for which, in test [1] (Well no.=6316), the remaining activity at 3.75 µM was 90.2%. The remaining activity at 1.25 µM in test [2] (Well no.=6316) came out at 95%.

As to `NCC(O)C1CCCCCCC1` (centres unmarked) [2-Cyclooctyl-2-hydroxyethylamine hydrochloride], the remaining activity at 3.75 µM in test [1] (Well no.=485) came out at 105%. Also, the remaining activity at 1.25 µM in test [2] (Well no.=485) is 106%.

With `O=CC[C@@H](O)[C@H](O)[C@H](O)CO` [2-Deoxy-D-glucose], the remaining activity at 3.75 µM in test [1] (Well no.=8302) came out at 101%. Moreover, the remaining activity at 1.25 µM in test [2] (Well no.=8302) amounted to 100%.

As to `CCCCCCCCCCCCCCC(F)C(=O)O` (centres unmarked) [2-Fluoropalmitic acid], the remaining activity at 3.75 µM in test [1] (Well no.=4355) amounted to 97%. Besides, in test [2] (Well no.=4355), the remaining activity at 1.25 µM came to 99.2%.

For `NC(N)=NCC(=O)O` [2-Guanidinoacetic acid], the remaining activity at 3.75 µM in test [1] (Well no.=6437) amounted to 105%. For the same compound, the remaining activity at 1.25 µM in test [2] (Well no.=6437) is 103%.

For the compound `CCC(C)(O)C(=O)O` (centres unmarked) [2-Hydroxy-2-methylbutanoic acid], the remaining activity at 3.75 µM in test [1] (Well no.=6357) turned out to be 93.4%. Further, the remaining activity at 1.25 µM in test [2] (Well no.=6357) amounted to 96.5%.

For `CC(C)C(O)C(=O)O` (centres unmarked) [2-Hydroxy-3-methylbutanoic acid], in test [1] (Well no.=7503), the remaining activity at 3.75 µM was 98.9%. Moreover, in test [2] (Well no.=7503), the remaining activity at 1.25 µM is 101%.

As for `CCCCCCCCCCCCC(O)C(=O)O` (centres unmarked) [2-Hydroxymyristic acid], in test [1] (Well no.=4353), the remaining activity at 3.75 µM amounted to 102%. In addition, the remaining activity at 1.25 µM in test [2] (Well no.=4353) came to 103%.

For `O=C(O)Cc1ccccc1O` [2-Hydroxyphenylacetic acid], in test [1] (Well no.=6307), the remaining activity at 3.75 µM amounted to 107%. Further, the remaining activity at 1.25 µM in test [2] (Well no.=6307) stood at 104%.

Regarding `NCC(O)(CS(=O)(=O)O)c1ccc(Cl)cc1` (centres unmarked) [2-Hydroxysaclofen], the remaining activity at 3.75 µM in test [1] (Well no.=355) is 95.6%. The remaining activity at 1.25 µM in test [2] (Well no.=355) came out at 97.9%.

On to `COc1ccc2[nH]c(I)c(CCNC(C)=O)c2c1` [2-Iodomelatonin], for which the remaining activity at 3.75 µM in test [1] (Well no.=622) was determined as 99.7%. For the same compound, the remaining activity at 1.25 µM in test [2] (Well no.=622) turned out to be 99.9%.

For `O=C(O)CCC(=O)C(=O)O` [2-Ketoglutaric acid], the remaining activity at 3.75 µM in test [1] (Well no.=7061) turned out to be 98.4%. Besides, the remaining activity at 1.25 µM in test [2] (Well no.=7061) turned out to be 103%.

In the case of `COc1ccccc1C(=O)O` [2-Methoxybenzoic acid], the remaining activity at 3.75 µM in test [1] (Well no.=6583) is 101%. Besides, in test [2] (Well no.=6583), the remaining activity at 1.25 µM is 103%.

With `COc1cc2c(cc1O)CC[C@@H]1[C@@H]2CC[C@]2(C)[C@@H](O)CC[C@@H]12` [2-Methoxyestradiol], the remaining activity at 3.75 µM in test [1] (Well no.=836) came out at 102%; in test [1] (Well no.=6292) it was 93.3%. The remaining activity at 1.25 µM was 105% in test [2] (Well no.=836) and 95.9% in test [2] (Well no.=6292).

`Cc1[nH]c2ccc(O)cc2c1CCN` [2-Methyl-5-hydroxytryptamine maleate]: in test [1] (Well no.=847), the remaining activity at 3.75 µM is 102%. The remaining activity at 1.25 µM in test [2] (Well no.=847) was 102%.

For the compound `CC(CCC(=O)O)C(=O)O` (centres unmarked) [2-Methylpentanedioic acid], in test [1] (Well no.=6733), the remaining activity at 3.75 µM came to 105%. Besides, in test [2] (Well no.=6733), the remaining activity at 1.25 µM came out at 99.7%.

For `CC(CC(=O)O)C(=O)O` (centres unmarked) [2-Methylsuccinic acid], the remaining activity at 3.75 µM in test [1] (Well no.=6635) was found to be 98.3%. Moreover, the remaining activity at 1.25 µM in test [2] (Well no.=6635) was 100%.

Take `Oc1ccc2ccccc2c1` [2-Naphthol]: the remaining activity at 3.75 µM in test [1] (Well no.=7155) is 99.5%. The remaining activity at 1.25 µM in test [2] (Well no.=7155) was 103%.

In the case of `O=C(O)C(=O)Cc1ccccc1` [2-Oxo-3-phenylpropanoic acid], the remaining activity at 3.75 µM in test [1] (Well no.=6877) is 103%. In addition, the remaining activity at 1.25 µM in test [2] (Well no.=6877) was determined as 109%.

For `CCC(=O)C(=O)O` [2-Oxobutanoic acid], the remaining activity at 3.75 µM in test [1] (Well no.=6293) was found to be 105%. In addition, the remaining activity at 1.25 µM in test [2] (Well no.=6293) was 106%.

For the compound `Nc1nc(Nc2ccccc2)nc2c1ncn2[C@@H]1O[C@H](CO)[C@@H](O)[C@H]1O` [2-Phenylaminoadenosine], the remaining activity at 3.75 µM in test [1] (Well no.=1213) amounted to 106%. The remaining activity at 1.25 µM in test [2] (Well no.=1213) was 102%.

Source of the values: article PMC8286840, “Identifying SARS-CoV-2 antiviral compounds by screening for small molecule inhibitors of Nsp3 papain-like protease” (Biochemical Journal, 2021).
